# Experiment: Henry solubility constant Hcp at 298.15 K (mol/(m3 Pa))
# Conditions: reference: Odabasi and Adali (2016)
row,Structure (SMILES),Henry solubility constant Hcp
1,"Clc1cc2c(Cl)c(Cl)c(Cl)c(Cl)c2c(Cl)c1Cl [1,2,3,4,5,6,7-heptachloronaphthalene]",3.6
2,"Clc1cc(Cl)c2c(Cl)c(Cl)c(Cl)c(Cl)c2c1Cl [1,2,3,4,5,6,8-heptachloronaphthalene]",2.4
3,"Clc1ccc2c(Cl)c(Cl)c(Cl)c(Cl)c2c1Cl [1,2,3,4,5,6-hexachloronaphthalene]",0.78
4,"Clc1c(Cl)c(Cl)c2c(Cl)ccc(Cl)c2c1Cl [1,2,3,4,5,8-hexachloronaphthalene]",0.93
5,"Clc1ccc2c(Cl)c(Cl)c(Cl)c(Cl)c2c1 [1,2,3,4,6-pentachloronaphthalene]",0.078
6,"Clc1cc2c(Cl)cc(Cl)c(Cl)c2c(Cl)c1Cl [1,2,3,5,7,8-hexachloronaphthalene]",0.43
7,"Clc1cc2c(Cl)ccc(Cl)c2c(Cl)c1Cl [1,2,3,5,8-pentachloronaphthalene]",0.17
8,"Clc1cc(Cl)c2c(Cl)c(Cl)ccc2c1Cl [1,2,4,5,6-pentachloronaphthalene]",0.14
9,"Clc1cc(Cl)c2c(Cl)cc(Cl)c(Cl)c2c1 [1,2,4,5,7-pentachloronaphthalene]",0.089
10,"Clc1cc(Cl)c2c(Cl)ccc(Cl)c2c1Cl [1,2,4,5,8-pentachloronaphthalene]",0.26
11,"Clc1cc(Cl)c2c(Cl)cccc2c1Cl [1,2,4,5-tetrachloronaphthalene]",0.15
12,"Clc1cc(Cl)c2c(Cl)c(Cl)cc(Cl)c2c1 [1,2,4,6,8-pentachloronaphthalene]",0.1
13,"Clc1ccc2c(Cl)cc(Cl)c(Cl)c2c1Cl [1,2,4,7,8-pentachloronaphthalene]",0.17
14,"Clc1ccc2c(Cl)cccc2c1Cl [1,2,5-trichloronaphthalene]",0.11
15,"Clc1ccc2c(Cl)c(Cl)ccc2c1 [1,2,6-trichloronaphthalene]",0.17
16,"Clc1cc(Cl)c2cccc(Cl)c2c1 [1,3,5-trichloronaphthalene]",0.071
17,"Clc1ccc(Cl)c2c(Cl)ccc(Cl)c12 [1,4,5,8-tetrachloronaphthalene]",0.35
18,"Clc1ccc(Cl)c2c(Cl)cccc12 [1,4,5-trichloronaphthalene]",0.22
19,Clc1c(Cl)c(Cl)c2c(Cl)c(Cl)c(Cl)c(Cl)c2c1Cl [octachloronaphthalene],1.2
